# Data published in PMC11458958 (iScience, 2024).
# Residues, ends and D or L forms follow the SMILES beside them. *: point of attachment. Cbz = O=C(OCc1ccccc1)*
# Experiments:
# cathepsins B and L = details: cited from earlier work
# cathepsins K, B, L and S = details: 25 mg/kg; cited from earlier work
# cathepsin L = test: Cathepsin activity in heart homogenates; assay type: in vivo, C57BL/6J mice; details: 25 mg/kg
# [1] = tested on: mice subjected to coronary occlusion and reperfusion; test: In vivo acute reperfusion injury: 45 min coronary occlusion, 24 h reperfusion; parameters: species or system C57BL/6J mice; details: 25 mg/kg i.p. 10 min before reperfusion
# [2] = tested on: mice with post-infarction remodeling; assay type: in vivo, C57BL/6J mice; details: 20 mg/kg daily oral
# TAC mice = test: Transverse aortic constriction
# [3] = 4 weeks after TAC, 10 mg/kg daily oral from 1 to 4 weeks after TAC (3w)
compound,measurement,setting,value
COCCOCCOC(=O)N[C@@H](CC(C)C)C(=O)N[C@@H](Cc1ccccc1)C(=O)C(=O)NC1CC1 [SNJ-1945],cathepsin inhibition,cathepsins B and L,inhibit at least cathepsins B and L
CCCN1CCN(c2ccc(C(=O)NC3(C(=O)NCC#N)CCCCC3)cc2)CC1 [balicatib],cathepsin inhibition at this dose,"cathepsins K, B, L and S","inhibits cathepsins K, B, L and S"
same,"cathepsin L activity in heart homogenates, reduced, compared to sham mice",cathepsin L,41.2 ± 7.3%
same,effect on infarct size,[1],failed to attenuate infarct size
CCOC(=O)[C@H](CCc1ccccc1)N[C@@H](C)C(=O)N1CCC[C@H]1C(=O)O [Enalapril],EF,[2]; 4 weeks of reperfusion,52.6 ± 2.2%
same,FS,[2]; 4 weeks of reperfusion,22.7 ± 1.3%
same,IVST,[2]; 4 weeks of reperfusion,0.79 ± 0.03 mm
same,LVEDD,[2]; 4 weeks of reperfusion,4.85 ± 0.19 mm
same,LVESD,[2]; 4 weeks of reperfusion,3.75 ± 0.12 mm
same,LVPWT,[2]; 4 weeks of reperfusion,0.67 ± 0.02 mm
same,reduction of scar size vs. control group,[2]; 28 days,24%
same,mortality rate,[2]; 28 days of reperfusion,20%
same,EF,TAC mice; [3],49.5 ± 1.6^$∗ %
same,FS,TAC mice; [3],20.8 ± 0.8^$∗ %
same,HW,TAC mice; [3],151.8 ± 4.9 mg
same,HW/TL,TAC mice; [3],8.68 ± 0.26^$∗ mg/mm
same,IVST,TAC mice; [3],0.97 ± 0.03^$∗ mm
same,LVEDD,TAC mice; [3],4.48 ± 0.05∗ mm
same,LVESD,TAC mice; [3],3.55 ± 0.05^$∗ mm
same,LVPWT,TAC mice; [3],0.78 ± 0.03^$ mm
same,EF reduction with respect to baseline,"TAC mice; 4 weeks after TAC, 10 mg/kg daily oral starting 1 week after TAC",16%
same,capillary density (CD31 staining),"TAC mice; starting 1 week after TAC surgery, 10 mg/kg daily oral",preserved capillary density
CC(C)[C@H](NC(=O)OCc1ccccc1)C(=O)N[C@H](C=O)Cc1ccccc1 [MDL-28170] (Cbz-Val-Phe-aldehyde),cathepsin inhibition,cathepsins B and L,inhibit at least cathepsins B and L
